This is an account of results in US8158143B2, “Systems for releasing active ingredients, based on biodegradable or biocompatible polymers with a shape memory effect” (Helmholtz-Zentrum Geesthacht Zentrum fuer Material- und …, priority 2000, dated 2012).

This series is described as follows: Drug release experiments (phosphate buffer pH 7, 37° C.). The series is classed as physicochemical. How it is done: Furthermore drug release tests were carried out with biodegradable matrix polymers. The above mentioned polyester methacrylate networks were loaded with 5% gentamicin and enoxazin, respectively. Samples having a size of 1×2 cm^2 were cut open and placed into a medium for release (4 ml phosphate buffer, pH 7). The pieces of the films were placed in tubes for a centrifuge, in a manner allowing the buffer solution to contact the films from all sides. The centrifuge tubes were placed into a shaking water bath at 37° C. and at predetermined intervals the medium for release was exchanged completely in order to determine the amount of the drug released. […] Samples are placed into polypropylene centrifuge vessels (which may be closed) of a volume of 15 ml and placed into contact with 4 ml of the releasing medium. […] The release experiment is carried out in a temperature controlled shaking water bath at 37° C. with 60 revolutions per minute. The temperature is controlled with an accuracy of ±0.1 K. […] The experiment is concluded when all of the drug has been released. The establishment of the release profile occurs by means of determination of the released drug by UV-Vis-spectroscopy. The resulting release profiles represent the arithmetical average from parallel experiments regarding the release from three samples of one material. If the experiment is terminated prior to the complete release of the drug from the matrix, a determination of the drug remaining in the polymer network becomes necessary. […] Using 5 ml chloroform the networks are swollen, and destroyed mechanically using a glass rod. Using additional 5 ml chloroform the swollen enoxacin containing fragments are extracted. With […] containing networks extraction is carried out using 5 ml 2-propanol. […] The content of drug remaining in the matrix is added to the content as determined with the release experiment.

Where [1] appears, read: from amorphous matrix N-LG(18)-10 (FIG. 4).
Setting [2] is: matrix based on paradioxanone and caprolactone, unmodified.

For the compound `CCOc1ccc2nc3cc(N)ccc3c(N)c2c1` [ethacridine lactate], the drug release profile entry is “released more rapidly” under setting [1] and “substantially linear release, with a slightly accelerated release at the beginning” (networks on the basis of polylactide-co-glycolide, segment Mn about 10000, 15 wt.-% glycolide content).

As to gentamicin, under setting [2], the “drug release profile at the beginning of the release” value was “rapid release (burst-effect)” and the “time until plateau of release is reached” value is recorded as “within two days”.

As for `O=C1CN(/N=C/c2ccc([N+](=O)[O-])o2)C(=O)N1` [nitrofurantoine], the drug release profile entry under setting [1] is “step profile”.
